Earlier results, collected in patent publication US7235142B2, “Non-toxic corrosion-protection rinses and seals based on cobalt” (University of Dayton, priority 2002, dated 2007).

conditions: pH 7

Point of comparison: `N.N.N.N.N.[Cl][Co]([Cl])[Cl]` [Pentaammine cobalt (III) chloride], “Solubility in Water” value 930 mM. Against it:
- N.N.N.N.N.N.[Cl-].[Cl-].[Cl-].[Co+3] [Hexaammine cobalt (III) chloride] — 4.2-fold lower, 220 mM
- [O-][Cl+3]([O-])([O-])O [Sodium perchlorate] — 16-fold higher, 15000 mM
- [O-][Cl+3]([O-])([O-])[O-].[O-][Cl+3]([O-])([O-])[O-].[Sr+2] [Strontium perchlorate] — 12-fold higher, 11000 mM
